Source: patent US9029391B2 (priority 2011, dated 2015)

Tested on: HIV
Test: MT4 Assay (anti-HIV activity)
Assay type: cell-based
Details: Human immunodeficiency virus 1, 96 h, read-out: HIV MT4 Assay IC50, HTLV-1 transformed cell line MT-4, cell titer glo, 10 point dose response curve
Method in brief: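 IC50 values were fitted to 10-point dose-response series (3-4-fold dilutions, range >1000-fold), normalized to no-compound control. CellTiter-Glo read-out was taken after 96 hours in HTLV-1-transformed MT-4 cells. Cytotoxicity was measured in parallel under identical conditions.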

In order of rising IC50:
1. COc1ccc2c(-c3ccc4c(c3C)CCCO4)c([C@H](OC(C)(C)C)C(=O)O)n(C)c(=O)c2c1 [Example 94, (2S)-2-(tert-butoxy)-2-[7-methoxy-2-methyl-4-(5-methyl-3,4-dihydro-2H-1-benzopyran-6-yl)-1-oxo-1,2-dihydroisoquinolin-3-yl]acetic acid]  20 nM
2. Cc1c(-c2c(C(OC(C)(C)C)C(=O)O)n(C)c(=O)c3cc(OCc4ccc(F)cc4)ccc23)ccc2c1CCCO2 (stereo not drawn) [Example 93, 2-(tert-butoxy)-2-{7-[(4-fluorophenyl)methoxy]-2-methyl-4-(5-methyl-3,4-dihydro-2H-1-benzopyran-6-yl)-1-oxo-1,2-dihydroisoquinolin-3-yl}acetic acid]  80 nM
3. Cc1c(-c2c(C(OC(C)(C)C)C(=O)O)n(C)c(=O)c3cc(OCc4ccccc4)ccc23)ccc2c1CCCO2 (stereo not drawn) [Example 88, 2-[7-(benzyloxy)-2-methyl-4-(5-methyl-3,4-dihydro-2H-1-benzopyran-6-yl)-1-oxo-1,2-dihydroisoquinolin-3-yl]-2-(tert-butoxy)acetic acid]  110 nM
4. Cc1ccc2c(-c3ccc4c(c3C)CCCO4)c(C(OC(C)(C)C)C(=O)O)n(C)c(=O)c2c1 (stereo not drawn) [Example 67, 2-(tert-butoxy)-2-[2,7-dimethyl-4-(5-methyl-3,4-dihydro-2H-1-benzopyran-6-yl)-1-oxo-1,2-dihydroisoquinolin-3-yl]acetic acid]  120 nM
5. COc1ccc2c(-c3ccc4c(c3C)CCCO4)c(C(OC(C)(C)C)C(=O)O)n(C)c(=O)c2c1 (stereo not drawn) [Example 76, 2-(tert-butoxy)-2-[7-methoxy-2-methyl-4-(5-methyl-3,4-dihydro-2H-1-benzopyran-6-yl)-1-oxo-1,2-dihydroisoquinolin-3-yl]acetic acid]  120 nM
6. Cc1c(-c2c(C(OC(C)(C)C)C(=O)O)n(C)c(=O)c3cc(F)ccc23)cc(F)c2c1CCCO2 (stereo not drawn) [Example 92, 2-(tert-butoxy)-2-[7-fluoro-4-(8-fluoro-5-methyl-3,4-dihydro-2H-1-benzopyran-6-yl)-2-methyl-1-oxo-1,2-dihydroisoquinolin-3-yl]acetic acid]  140 nM
7. Cc1c(-c2c(C(OC(C)(C)C)C(=O)O)n(C)c(=O)c3cc(Cl)ccc23)ccc2c1CCCO2 (stereo not drawn) [Example 79, 2-(tert-butoxy)-2-[7-chloro-2-methyl-4-(5-methyl-3,4-dihydro-2H-1-benzopyran-6-yl)-1-oxo-1,2-dihydroisoquinolin-3-yl]acetic acid]  200 nM
8. Cc1c(-c2c(C(OC(C)(C)C)C(=O)O)n(C)c(=O)c3cc(F)ccc23)ccc2c1CCCO2 (stereo not drawn) [Example 75, 2-(tert-butoxy)-2-[7-fluoro-2-methyl-4-(5-methyl-3,4-dihydro-2H-1-benzopyran-6-yl)-1-oxo-1,2-dihydroisoquinolin-3-yl]acetic acid]  390 nM
9. COc1ccc2c(-c3ccc4c(c3)CCCO4)c(C(OC(C)(C)C)C(=O)O)n(C)c(=O)c2c1 (stereo not drawn) [Example 72, 2-(tert-butoxy)-2-[4-(3,4-dihydro-2H-1-benzopyran-6-yl)-7-methoxy-2-methyl-1-oxo-1,2-dihydroisoquinolin-3-yl]acetic acid]  400 nM
10. Cc1c(-c2c(C(OC(C)(C)C)C(=O)O)n(C)c(=O)c3cc(OCCF)ccc23)ccc2c1CCCO2 (stereo not drawn) [Example 89, 2-(tert-butoxy)-2-[7-(2-fluoroethoxy)-2-methyl-4-(5-methyl-3,4-dihydro-2H-1-benzopyran-6-yl)-1-oxo-1,2-dihydroisoquinolin-3-yl]acetic acid]  400 nM
11. COCCOc1ccc2c(-c3ccc4c(c3C)CCCO4)c(C(OC(C)(C)C)C(=O)O)n(C)c(=O)c2c1 (stereo not drawn) [Example 81, 2-(tert-butoxy)-2-[7-(2-methoxyethoxy)-2-methyl-4-(5-methyl-3,4-dihydro-2H-1-benzopyran-6-yl)-1-oxo-1,2-dihydroisoquinolin-3-yl]acetic acid]  440 nM
12. Cc1c(-c2c(C(OC(C)(C)C)C(=O)O)n(C)c(=O)c3ccc(F)cc23)cc(F)c2c1CCCO2 (stereo not drawn) [Example 91, 2-(tert-butoxy)-2-[6-fluoro-4-(8-fluoro-5-methyl-3,4-dihydro-2H-1-benzopyran-6-yl)-2-methyl-1-oxo-1,2-dihydroisoquinolin-3-yl]acetic acid]  440 nM
13. CCn1c(C(OC(C)(C)C)C(=O)O)c(-c2ccc3c(c2C)CCCO3)c2ccccc2c1=O (stereo not drawn) [Example 77, 2-(tert-butoxy)-2-[2-ethyl-4-(5-methyl-3,4-dihydro-2H-1-benzopyran-6-yl)-1-oxo-1,2-dihydroisoquinolin-3-yl]acetic acid]  490 nM
14. Cc1c(-c2c(C(OC(C)(C)C)C(=O)O)n(C)c(=O)c3c(F)cccc23)ccc2c1CCCO2 (stereo not drawn) [Example 83, 2-(tert-butoxy)-2-[8-fluoro-2-methyl-4-(5-methyl-3,4-dihydro-2H-1-benzopyran-6-yl)-1-oxo-1,2-dihydroisoquinolin-3-yl]acetic acid]  500 nM
15. Cc1c(-c2c(C(OC(C)(C)C)C(=O)O)n(C)c(=O)c3c(F)cccc23)cc(F)c2c1CCCO2 (stereo not drawn) [Example 90, 2-(tert-butoxy)-2-[8-fluoro-4-(8-fluoro-5-methyl-3,4-dihydro-2H-1-benzopyran-6-yl)-2-methyl-1-oxo-1,2-dihydroisoquinolin-3-yl]acetic acid]  510 nM
16. Cc1c(-c2c(C(OC(C)(C)C)C(=O)O)n(C)c(=O)c3ccc(F)cc23)ccc2c1CCCO2 (stereo not drawn) [Example 69, 2-(tert-butoxy)-2-[6-fluoro-2-methyl-4-(5-methyl-3,4-dihydro-2H-1-benzopyran-6-yl)-1-oxo-1,2-dihydroisoquinolin-3-yl]acetic acid]  570 nM
17. Cc1ccc(-c2c(C(OC(C)(C)C)C(=O)O)n(C)c(=O)c3cc(F)ccc23)cc1C (stereo not drawn) [Example 87, 2-(tert-butoxy)-2-[4-(3,4-dimethylphenyl)-7-fluoro-2-methyl-1-oxo-1,2-dihydroisoquinolin-3-yl]acetic acid]  740 nM
18. Cc1c(-c2c(C(OC(C)(C)C)C(=O)O)n(C)c(=O)c3ccccc23)cc(Cl)c2c1CCCO2 (stereo not drawn) [Example 70, 2-(tert-butoxy)-2-[4-(8-chloro-5-methyl-3,4-dihydro-2H-1-benzopyran-6-yl)-2-methyl-1-oxo-1,2-dihydroisoquinolin-3-yl]acetic acid]  1230 nM
19. Cc1ccccc1-c1c(C(OC(C)(C)C)C(=O)O)n(C)c(=O)c2ccccc12 (stereo not drawn) [Example 71, 2-(tert-butoxy)-2-[2-methyl-4-(2-methylphenyl)-1-oxo-1,2-dihydroisoquinolin-3-yl]acetic acid]  1450 nM
20. CCn1c(C(OC(C)(C)C)C(=O)O)c(-c2ccc3c(c2)CCCO3)c2ccccc2c1=O (stereo not drawn) [Example 65, 2-(tert-butoxy)-2-[4-(3,4-dihydro-2H-1-benzopyran-6-yl)-2-ethyl-1-oxo-1,2-dihydroisoquinolin-3-yl]acetic acid]  1460 nM
21. Cn1c(C(OC(C)(C)C)C(=O)O)c(-c2ccc3c(c2)CCO3)c2ccccc2c1=O (stereo not drawn) [Example 63, 2-(tert-butoxy)-2-[4-(2,3-dihydro-1-benzofuran-5-yl)-2-methyl-1-oxo-1,2-dihydroisoquinolin-3-yl]acetic acid]  1690 nM
22. Cn1c(C(OC(C)(C)C)C(=O)O)c(-c2ccc3c(c2)CCCO3)c2ccc(Cl)cc2c1=O (stereo not drawn) [Example 68, 2-(tert-butoxy)-2-[7-chloro-4-(3,4-dihydro-2H-1-benzopyran-6-yl)-2-methyl-1-oxo-1,2-dihydroisoquinolin-3-yl]acetic acid]  2450 nM
23. Cc1cc(-c2c(C(OC(C)(C)C)C(=O)O)n(C)c(=O)c3ccccc23)cc(C)c1Cl (stereo not drawn) [Example 66, 2-(tert-butoxy)-2-[4-(4-chloro-3,5-dimethylphenyl)-2-methyl-1-oxo-1,2-dihydroisoquinolin-3-yl]acetic acid]  3600 nM
24. Cn1c(C(OC(C)(C)C)C(=O)O)c(-c2ccc3c(c2Cl)NCCO3)c2ccccc2c1=O (stereo not drawn) [Example 86, 2-(tert-butoxy)-2-[4-(5-chloro-3,4-dihydro-2H-1,4-benzoxazin-6-yl)-2-methyl-1-oxo-1,2-dihydroisoquinolin-3-yl]acetic acid]  4380 nM
25. Cn1c(C(OC(C)(C)C)C(=O)O)c(-c2ccc3c(c2)NCCO3)c2ccccc2c1=O (stereo not drawn) [Example 82, 2-(tert-butoxy)-2-[4-(3,4-dihydro-2H-1,4-benzoxazin-6-yl)-2-methyl-1-oxo-1,2-dihydroisoquinolin-3-yl]acetic acid]  7400 nM
26. Cc1c(-c2c(C(OC(C)(C)C)C(=O)O)n(C)c(=O)c3cc(OCCN(C)C)ccc23)ccc2c1CCCO2 (stereo not drawn) [Example 85, 2-(tert-butoxy)-2-{7-[2-(dimethylamino)ethoxy]-2-methyl-4-(5-methyl-3,4-dihydro-2H-1-benzopyran-6-yl)-1-oxo-1,2-dihydroisoquinolin-3-yl}acetic acid]  7630 nM
27. Cn1c(C(OC(C)(C)C)C(=O)O)c(-c2ccc3ccccc3c2)c2ccccc2c1=O (stereo not drawn) [Example 64, 2-(tert-butoxy)-2-[2-methyl-4-(naphthalen-2-yl)-1-oxo-1,2-dihydroisoquinolin-3-yl]acetic acid]  8700 nM
28. Cc1c(-c2c(C(OC(C)(C)C)C(=O)O)n(C)c(=O)c3cc(O)ccc23)ccc2c1CCCO2 (stereo not drawn) [Example 84, 2-(tert-butoxy)-2-[7-hydroxy-2-methyl-4-(5-methyl-3,4-dihydro-2H-1-benzopyran-6-yl)-1-oxo-1,2-dihydroisoquinolin-3-yl]acetic acid]  26000 nM
29. Cn1c(C(OC(C)(C)C)C(=O)O)c(-c2ccc3c(c2)CCC(C)(C)O3)c2ccccc2c1=O (stereo not drawn) [Example 78, 2-(tert-butoxy)-2-[4-(2,2-dimethyl-3,4-dihydro-2H-1-benzopyran-6-yl)-2-methyl-1-oxo-1,2-dihydroisoquinolin-3-yl]acetic acid]  41600 nM
30. CC(=O)N1CCc2ccc(-c3c(C(OC(C)(C)C)C(=O)O)n(C)c(=O)c4ccccc34)cc2C1 (stereo not drawn) [Example 80, 2-[4-(2-acetyl-1,2,3,4-tetrahydroisoquinolin-7-yl)-2-methyl-1-oxo-1,2-dihydroisoquinolin-3-yl]-2-(tert-butoxy)acetic acid]  50000 nM
